Values joined by “and” are separate entries in the source; they are usually repeats but may differ in a detail not shown here. Equal values may be shown once.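 Dose response: 5 concentrations. Exposure: 48 h. Format: 96-well plates. Endpoint: linear interpolation; highest concentration if not reached. Abbreviation: GI50, concentration required for 50% inhibition of growth. TGI denotes the concentration required for complete inhibition of growth.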
The compounds below were run on MOLT-4 leukemia (assay: DTP human tumour cell line panel, 48 h).
With `CC(C)N(C(=O)C12C3C4C5(C#N)C3C1(C#N)C5C42I)C(C)C` (centres undefined) the TGI was > 100 µM.
`C=COCCCOc1ccccc1` was tested, and the TGI was > 100 µM.
In the case of `COc1ccc2c3c([nH]c2c1[N+](=O)[O-])C(C)=NCC3`, the TGI is reported as > 100 µM.
In the case of `C=C(c1nc2ccc(Cl)cc2[nH]c1=O)C(O)c1ccc(C(O)C(=O)c2nc3ccc(Cl)cc3[nH]c2=O)cc1` (centres undefined), the TGI is reported as > 100 µM.
In the case of `O=c1c2sc(=S)n(-c3ccc(F)cc3)c2ncn1Cc1ccc(F)cc1F`, the GI50 is reported as > 100 µM and the TGI is reported as > 100 µM.
For `CC(C)(C)CC(C)(C)c1cc2c(O)c(c1)Cc1cc(C(C)(C)CC(C)(C)C)cc(c1O)Cc1cc(C(C)(C)CC(C)(C)C)cc(c1O)Cc1cc(C(C)(C)CC(C)(C)C)cc(c1O)C2`, the TGI was > 100 µM.
`C=CCCCCC/C=C\[C@H](O)C#CC#C/C=C/CO` showed a GI50 of 17.3 µM and a TGI of 49.2 µM.
For `Cc1cc([N+](=O)[O-])ccc1Nc1cccc(Cl)c1C`, the TGI was 33 µM.
Compound `O/N=C/C1C(OCc2ccccc2)C(OCc2ccccc2)C(OCc2ccccc2)CN1Cc1ccccc1` (centres undefined) has a TGI of 31.4 µM.
In the case of `O=C1NC(=O)C(c2cnc3ccccn23)=C1c1cn2c3c(cc(F)cc13)CN(C(=O)N1CCCCC1)CC2`, the GI50 is reported as 3.41 µM and the TGI is reported as > 81.4 µM.
`Clc1nc2ccccc2nc1CI` was tested, and the GI50 was 1.75 µM and the TGI was 12.2 µM.
With `[Cl][Hg][c]1cc(Br)cc(Br)c1` the GI50 was 1.77 µM and the TGI was 5.41 µM.
For `CCN(CC)CCOc1ccc(-c2nc3cc(Cl)ccc3s2)cc1`, the GI50 was 2.24 µM and the TGI was 10.9 µM.
`C=C1C(=O)O[C@@H]2C[C@@H]1CC/C(C)=C/CC/C(C)=C/CC[C@@]2(C)O` was tested, and the GI50 was 3.72 µM and the TGI was 18 µM.
For `[N-]=[N+]=NC12CC3C4CC5CC3C(C1)C(C5)C4C2`, the TGI was > 100 µM.
`O=C1c2cccc(NCCCNCCO)c2C(=O)c2cccc(NCCCNCCO)c21` was tested, and the TGI was 13.1 µM and 8.29 µM.
With `CC1=NNC(=O)C2CCC(=O)N12` (centres undefined) the TGI was > 100 µM.
With `Cn1c2c(c3ccccc31)C1CCCCCCC1C1C(=O)OC(=O)C21` (centres undefined) the TGI was 65.8 µM.
In the case of `Cc1ccc(S(=O)(=O)N(CC(=O)O)c2ccccc2)cc1`, the TGI is reported as > 100 µM.
With `COc1ccc(/C=C(/C(=O)N2CCN(c3ccccc3)CC2)c2cc(OC)c(OC)c(OC)c2)cc1O` the GI50 was 0.368 µM and the TGI was > 100 µM.
`O=C1/C(=C/c2ccc(Br)cc2)COc2ccc(O)c(O)c21` was tested, and the GI50 was 0.431 µM and the TGI was > 100 µM.
With `N#CC(N)(C(=O)CCC(=O)Nc1cccc(Cl)c1)c1ccc(Cl)cc1` (centres undefined) the TGI was > 100 µM.
`O=C(Nc1nc2ccc(C(F)(F)F)cc2s1)c1cc(Cl)ccc1O` showed a GI50 of 0.684 µM and a TGI of 13.4 µM.
`COc1cnc2c(c1)C(=O)c1c-2n(CCCNC(C)C)c(=O)c2cc(Cl)ccc12` gave a GI50 of 0.0397 µM and a TGI of 0.452 µM.
For `CN1CCN(CCOc2ccc(-c3cnc4c(-c5ccccc5F)cnn4c3)cc2)CC1`, the GI50 was 1.79 µM and the TGI was 4.36 µM.
In the case of `CN(C)N=Nc1ccc(NC=O)cc1`, the TGI is reported as > 100 µM.
Compound `COc1cc(N(CCC#N)CCC#N)ccc1/C(N=Nc1ccc([N+](=O)[O-])cc1)=N/NC(=O)c1cc(Br)ccc1O` has a GI50 of 42.6 µg/mL and a TGI of 128 µg/mL.
In the case of `C=C1C(=O)OC2CCN3CC=C(COC(=O)C(C)(O)C4(CO4)C1C)C23` (centres undefined), the TGI is reported as > 100 µM.

What follows are compounds tested on OVCAR-4 ovarian (assay: DTP human tumour cell line panel, 48 h).
`OC[C@H]1C[C@](O)(c2ccc(Cl)cc2)[C@@H](c2ccc(Cl)cc2)O1` was tested, and the GI50 was 32 µM and the TGI was > 100 µM.
For `CC(C)N(C(=O)C12C3C4C5(C#N)C3C1(C#N)C5C42I)C(C)C` (centres undefined), the TGI was > 100 µM.
`C=COCCCOc1ccccc1` was tested, and the TGI was > 100 µM.
With `COc1cc2nc(-c3ccc(Cl)cc3)cc(OCCCN3CCCCC3)c2cc1OC` the GI50 was 3.85 µM and the TGI was > 100 µM.
With `COc1ccc2c3c([nH]c2c1[N+](=O)[O-])C(C)=NCC3` the TGI was > 100 µM.
`C=C(c1nc2ccc(Cl)cc2[nH]c1=O)C(O)c1ccc(C(O)C(=O)c2nc3ccc(Cl)cc3[nH]c2=O)cc1` (centres undefined) was tested, and the TGI was > 100 µM.
`O=c1c2sc(=S)n(-c3ccc(F)cc3)c2ncn1Cc1ccc(F)cc1F` was tested, and the GI50 was > 100 µM and the TGI was > 100 µM.
`CC(C)(C)CC(C)(C)c1cc2c(O)c(c1)Cc1cc(C(C)(C)CC(C)(C)C)cc(c1O)Cc1cc(C(C)(C)CC(C)(C)C)cc(c1O)Cc1cc(C(C)(C)CC(C)(C)C)cc(c1O)C2` was tested, and the TGI was > 100 µM.
For `C=CCCCCC/C=C\[C@H](O)C#CC#C/C=C/CO`, the GI50 was 90.8 µM and the TGI was > 100 µM.
With `COc1cc(C#CC(=O)OC/C=C/c2ccc3c(c2)OCO3)cc(OC)c1OC` the TGI was > 100 µM.
`Cc1cc([N+](=O)[O-])ccc1Nc1cccc(Cl)c1C` showed a TGI of 31.4 µM.
In the case of `O/N=C/C1C(OCc2ccccc2)C(OCc2ccccc2)C(OCc2ccccc2)CN1Cc1ccccc1` (centres undefined), the TGI is reported as > 100 µM.
In the case of `O=C1NC(=O)C(c2cnc3ccccn23)=C1c1cn2c3c(cc(F)cc13)CN(C(=O)N1CCCCC1)CC2`, the GI50 is reported as 1.5 µM and the TGI is reported as > 63.4 µM.
`Clc1nc2ccccc2nc1CI` was tested, and the GI50 was 5.34 µM and the TGI was 18.3 µM.
Compound `[Cl][Hg][c]1cc(Br)cc(Br)c1` has a GI50 of 2.31 µM and a TGI of 7.69 µM.
In the case of `CC(C)c1ccc2c(c1)CC[C@@H]1[C@@](C)(C(=O)O)CCC[C@]21C`, the GI50 is reported as 4.23 µM and the TGI is reported as 10.8 µM.
Compound `CCN(CC)CCOc1ccc(-c2nc3cc(Cl)ccc3s2)cc1` has a GI50 of 1.65 µM and a TGI of 7.21 µM.
`C=C1C(=O)O[C@@H]2C[C@@H]1CC/C(C)=C/CC/C(C)=C/CC[C@@]2(C)O` was tested, and the GI50 was 34.6 µM and the TGI was > 100 µM.
With `[N-]=[N+]=NC12CC3C4CC5CC3C(C1)C(C5)C4C2` the TGI was > 100 µM.
For `O=C1c2cccc(NCCCNCCO)c2C(=O)c2cccc(NCCCNCCO)c21`, the GI50 was 0.747 µM and 2.55 µM and the TGI was 2.59 µM and 6.09 µM.
`Cc1cc(CC(O)c2ccc(Cl)c(Cl)c2)nc(=O)[nH]1` (centres undefined) was tested, and the TGI was > 100 µM.
With `CC1=NNC(=O)C2CCC(=O)N12` (centres undefined) the TGI was > 100 µM.
In the case of `Cn1c2c(c3ccccc31)C1CCCCCCC1C1C(=O)OC(=O)C21` (centres undefined), the TGI is reported as > 100 µM.
In the case of `Cc1ccc(S(=O)(=O)N(CC(=O)O)c2ccccc2)cc1`, the TGI is reported as > 100 µM.
With `COc1ccc(/C=C(/C(=O)N2CCN(c3ccccc3)CC2)c2cc(OC)c(OC)c(OC)c2)cc1O` the GI50 was 2.7 µM and the TGI was > 100 µM.
`O=C1/C(=C/c2ccc(Br)cc2)COc2ccc(O)c(O)c21` gave a GI50 of 1.31 µM and a TGI of 2.59 µM.
With `N#CC(N)(C(=O)CCC(=O)Nc1cccc(Cl)c1)c1ccc(Cl)cc1` (centres undefined) the TGI was > 100 µM.
In the case of `O=C(Nc1nc2ccc(C(F)(F)F)cc2s1)c1cc(Cl)ccc1O`, the GI50 is reported as 1.87 µM and the TGI is reported as > 100 µM.
`COc1cnc2c(c1)C(=O)c1c-2n(CCCNC(C)C)c(=O)c2cc(Cl)ccc12` was tested, and the GI50 was 1.04 µM and the TGI was 2.7 µM.
Compound `CN1CCN(CCOc2ccc(-c3cnc4c(-c5ccccc5F)cnn4c3)cc2)CC1` has a GI50 of 1.55 µM and a TGI of 4.49 µM.
For `CN(C)N=Nc1ccc(NC=O)cc1`, the TGI was > 100 µM.
In the case of `COc1cc(N(CCC#N)CCC#N)ccc1/C(N=Nc1ccc([N+](=O)[O-])cc1)=N/NC(=O)c1cc(Br)ccc1O`, the GI50 is reported as 21.5 µg/mL and the TGI is reported as 62.4 µg/mL.
In the case of `C=C1C(=O)OC2CCN3CC=C(COC(=O)C(C)(O)C4(CO4)C1C)C23` (centres undefined), the TGI is reported as > 100 µM.

What follows are compounds tested on OVCAR-5 ovarian (assay: DTP human tumour cell line panel, 48 h).
Compound `OC[C@H]1C[C@](O)(c2ccc(Cl)cc2)[C@@H](c2ccc(Cl)cc2)O1` has a GI50 of 25.9 µM and a TGI of 71.7 µM.
For `CC(C)N(C(=O)C12C3C4C5(C#N)C3C1(C#N)C5C42I)C(C)C` (centres undefined), the TGI was > 100 µM.
With `C=COCCCOc1ccccc1` the TGI was > 100 µM.
For `COc1cc2nc(-c3ccc(Cl)cc3)cc(OCCCN3CCCCC3)c2cc1OC`, the GI50 was 1.16 µM and the TGI was > 100 µM.
With `COc1ccc2c3c([nH]c2c1[N+](=O)[O-])C(C)=NCC3` the TGI was > 100 µM.
For `C=C(c1nc2ccc(Cl)cc2[nH]c1=O)C(O)c1ccc(C(O)C(=O)c2nc3ccc(Cl)cc3[nH]c2=O)cc1` (centres undefined), the TGI was > 100 µM.
In the case of `O=c1c2sc(=S)n(-c3ccc(F)cc3)c2ncn1Cc1ccc(F)cc1F`, the GI50 is reported as > 100 µM and the TGI is reported as > 100 µM.
In the case of `CC(C)(C)CC(C)(C)c1cc2c(O)c(c1)Cc1cc(C(C)(C)CC(C)(C)C)cc(c1O)Cc1cc(C(C)(C)CC(C)(C)C)cc(c1O)Cc1cc(C(C)(C)CC(C)(C)C)cc(c1O)C2`, the TGI is reported as > 100 µM.
For `C=CCCCCC/C=C\[C@H](O)C#CC#C/C=C/CO`, the GI50 was 43.3 µM and the TGI was > 100 µM.
`COc1cc(C#CC(=O)OC/C=C/c2ccc3c(c2)OCO3)cc(OC)c1OC` was tested, and the TGI was > 100 µM.
`Cc1cc([N+](=O)[O-])ccc1Nc1cccc(Cl)c1C` gave a TGI of 28.8 µM.
With `O/N=C/C1C(OCc2ccccc2)C(OCc2ccccc2)C(OCc2ccccc2)CN1Cc1ccccc1` (centres undefined) the GI50 was 20 µM and 9.34 µM and the TGI was 57.3 µM and > 100 µM.
With `O=C1NC(=O)C(c2cnc3ccccn23)=C1c1cn2c3c(cc(F)cc13)CN(C(=O)N1CCCCC1)CC2` the GI50 was 23.5 µM and the TGI was 64.4 µM.
For `Clc1nc2ccccc2nc1CI`, the GI50 was 8.26 µM and the TGI was 22 µM.
Work on `[Cl][Hg][c]1cc(Br)cc(Br)c1` yielded a GI50 of 2.8 µM and a TGI of 5.65 µM.
